Assay results reported in US20240158446A1, “CYCLIC COMPOUND HAVING SELECTIVE INHIBITORY ACTION ON KRAS OVER HRAS AND NRAS” (CHUGAI SEIYAKU KABUSHIKI KAISHA, priority 2021, published 2024).
Read-outs that look alike come from different tables or passages of the source. *1 amine or outer side, *2 acyl side, *3 side chain or, on linkers, in order; H or OH if unused. Where a SMILES comes first, the peptide text is derived from it. Bridges are numbered along the chain shown (N, C = ends). [ ]: non-standard residue; d: D form. The star is where a group is joined. hPhe(3,5-F2-4-CF3) = N[C@@H](CCc1cc(F)c(C(F)(F)F)c(F)c1)C(=O)O; hPhe(3-Cl-4-CF3) = N[C@@H](CCc1ccc(C(F)(F)F)c(Cl)c1)C(=O)O; X32 = COCCN([C@@H](Cc1ccc(C(F)(F)F)cc1)C(=O)[*:2])[*:1]; NPrPhe(4-CF3) = CCCN[C@@H](Cc1ccc(C(F)(F)F)cc1)C(=O)O; NEtPhe(4-Me) = CCN[C@@H](Cc1ccc(C)cc1)C(=O)O; NMeGly(cPent) = CN[C@H](C(=O)O)C1CCCC1; NMeD = CN[C@@H](CC(=O)O)C(=O)O; NMeL = CN[C@@H](CC(C)C)C(=O)O; Morpholide = C1CN(*)CCO1; NMeA = CN[C@@H](C)C(=O)O; Ac5c = NC1(C(=O)O)CCCC1; Aze = O=C(O)[C@@H]1CCN1; NEtG = CCNCC(=O)O; Sar = CNCC(=O)O

Key:
[1] = target: GDP-bound KRAS wild-type protein (Homo sapiens, UniProt P01116); experiment: Binding to KRAS by surface plasmon resonance (SPR), Single Cycle Kinetics; conditions: GDP-bound KRAS wild-type protein, read-out: KRAS KD
[2] = target: GDP-bound NRAS wild-type protein (Homo sapiens, UniProt P01111); experiment: Binding to NRAS by surface plasmon resonance (SPR), Single Cycle Kinetics; conditions: SPR, GDP-bound NRAS wild-type protein vs GDP-bound KRAS wild-type protein
[3] = target: GDP-bound HRAS wild-type protein (Homo sapiens, UniProt P01112); experiment: Binding to HRAS by surface plasmon resonance (SPR), Single Cycle Kinetics; conditions: SPR, GDP-bound HRAS wild-type protein vs GDP-bound KRAS wild-type protein
[4] = SPR Single Cycle Kinetics, 1:1 binding model

GDP-bound KRAS wild-type protein, sequence (P01116 whole entry): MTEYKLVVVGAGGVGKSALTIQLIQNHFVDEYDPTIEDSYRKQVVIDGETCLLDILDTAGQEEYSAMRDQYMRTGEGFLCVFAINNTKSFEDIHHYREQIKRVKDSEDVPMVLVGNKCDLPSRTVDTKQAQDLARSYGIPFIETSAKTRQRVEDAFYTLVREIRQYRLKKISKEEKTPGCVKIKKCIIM
GDP-bound NRAS wild-type protein, sequence (P01111 whole entry): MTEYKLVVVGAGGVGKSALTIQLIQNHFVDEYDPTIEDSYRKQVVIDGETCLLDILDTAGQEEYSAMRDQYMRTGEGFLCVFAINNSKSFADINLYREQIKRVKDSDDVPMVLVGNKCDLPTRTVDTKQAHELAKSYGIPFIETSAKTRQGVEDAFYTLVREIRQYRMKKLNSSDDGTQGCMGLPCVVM
GDP-bound HRAS wild-type protein, sequence (P01112 whole entry): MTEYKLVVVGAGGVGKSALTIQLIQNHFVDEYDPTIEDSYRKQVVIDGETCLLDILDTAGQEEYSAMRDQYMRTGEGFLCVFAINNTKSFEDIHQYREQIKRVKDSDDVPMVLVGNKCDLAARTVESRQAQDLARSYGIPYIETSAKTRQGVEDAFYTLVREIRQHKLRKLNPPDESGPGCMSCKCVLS

SMILES	Kd ([1]; SPR, Single Cycle Kinetics) [nM]	Kd [1, 4] [nM]	NRAS/KRAS (ratio of KD value for NRAS to KD value for KRAS) [2]	HRAS/KRAS (ratio of KD value for HRAS to KD value for KRAS) [3]	other results
CCCOC[C@H]1C(=O)N[C@@H]([C@@H](C)CC)C(=O)N(C)CC(=O)N(C)[C@H]2C/C=C\CCN(C2=O)[C@@H](Cc2ccc(C(F)(F)F)cc2)C(=O)N(C)CC(=O)N[C@@H](CCc2cc(F)c(C(F)(F)F)c(F)c2)C(=O)N2C[C@H](OCC)C[C@H]2C(=O)NC2(CCC2)C(=O)N(C)[C@@H](C2CCCC2)C(=O)N(C)[C@H](C(=O)N(C)CC)CC(=O)N1C [PP1569]	–	–	–	–	Kd ([1]; SPR, Single Cycle Kinetics, 1:1 binding model): 0.11 nM; NRAS/KRAS (ratio of KD value for NRAS to KD value for KRAS) ([2]; KD ratio class): A (a compound having 10 or more and less than 20 is denoted as A); HRAS/KRAS (ratio of KD value for HRAS to KD value for KRAS) ([3]; KD ratio class): B (a compound having 3 or more and less than 10 is denoted as B)
CC[C@H](C)[C@@H]1NC(=O)[C@@H]2CCC/C=C/c3ccc(cc3)C[C@@H](C(=O)N(C)CC(=O)N[C@@H](CCc3ccc(Cl)c(Cl)c3)C(=O)N3C[C@H](OC4CCC4)C[C@H]3C(=O)NC3(CC(C)(C)C3)C(=O)N(C)[C@@H](C3CCCC3)C(=O)N(C)[C@H](C(=O)N3CCCC3)CC(=O)N2C)N2CC/C=C\C[C@@H](C2=O)N(C)C(=O)CN(C)C1=O [PP3053]	0.16	–	A (a compound having 10 or more and less than 20 is denoted as A)	A (a compound having 10 or more and less than 20 is denoted as A)	–
CC[C@H](C)[C@@H]1NC(=O)[C@H](C)N(C)C(=O)C[C@@H](C(=O)N(C)C)N(C)C(=O)[C@H](C2CCCC2)N(C)C(=O)C2(CCC2)NC(=O)[C@@H]2CCCN2C(=O)[C@H](CCc2cc(F)c(C(F)(F)F)c(F)c2)NC(=O)CN(C)C(=O)[C@H](Cc2ccc(C(F)(F)F)cc2)N2CCCC[C@@H](C2=O)N(C)C(=O)CN(C)C1=O [PP0581]	–	0.02	–	–	NRAS/KRAS (ratio of KD value with respect to NRAS to KD value with respect to KRAS) [2]: C (A compound having a KD ratio of 0.1 or more and less than 3 is denoted as C); HRAS/KRAS (ratio of KD value with respect to HRAS to KD value with respect to KRAS) [3]: B (a compound having 3 or more and less than 10 is denoted as B)
CCO[C@@H]1C[C@H]2C(=O)NC3(CCC3)C(=O)N(C)[C@@H](C3CCCC3)C(=O)N(C)[C@H](C(=O)N(C)C)CC(=O)N(C)[C@H]3CCCCCc4ccc(cc4)C[C@@H](C(=O)N(C)CC(=O)N[C@@H](CCc4ccc(C(F)(F)F)c(OC)c4)C(=O)N2C1)N1CC/C=C\C[C@@H](C1=O)N(C)C(=O)CN(C)C(=O)[C@H]([C@@H](C)CC)NC3=O [PP2262]	0.24	–	A (a compound having 10 or more and less than 20 is denoted as A)	B (a compound having 3 or more and less than 10 is denoted as B)	–
C=CCN1CC(=O)N(C)[C@H]2C/C=C\CCN(C2=O)[C@@H](Cc2ccc(C)cc2)C(=O)N(C)CC(=O)N[C@@H](CCc2ccc(C(F)(F)F)c(OC)c2)C(=O)N2C[C@H](OCC)C[C@H]2C(=O)NC2(CC(C)(C)C2)C(=O)N(C)[C@@H](C2CCCC2)C(=O)N(C)[C@H](C(=O)N(C)C)CC(=O)N(C)[C@@H](CCC)C(=O)N[C@@H]([C@@H](C)CC)C1=O [PP2098]	0.2	–	A (a compound having 10 or more and less than 20 is denoted as A)	A (a compound having 10 or more and less than 20 is denoted as A)	–
CCO[C@@H]1C[C@H]2C(=O)NC3(CC(C)(C)C3)C(=O)N(C)[C@@H](C3CCCC3)C(=O)N(C)[C@H](C(=O)N(C)CC)CC(=O)N(C)[C@@H](CC(C)C)C(=O)N[C@@H]([C@@H](C)CC)C(=O)N(C)CC(=O)N(C)[C@H]3C/C=C\CCN(C3=O)[C@@H](Cc3ccc(C(F)F)cc3)C(=O)N(C)CC(=O)N[C@@H](CCc3cc(F)c(C(F)(F)F)c(F)c3)C(=O)N2C1 [PP2046]	0.063	–	A (a compound having 10 or more and less than 20 is denoted as A)	A (a compound having 10 or more and less than 20 is denoted as A)	–

More lines, main results first:

Kd ([1]; SPR, Single Cycle Kinetics) [nM]	Kd [1, 4] [nM]	SMILES	NRAS/KRAS (ratio of KD value for NRAS to KD value for KRAS) [2]	HRAS/KRAS (ratio of KD value for HRAS to KD value for KRAS) [3]	other results
–	0.44	C#CC[C@H]1C(=O)N[C@@H]([C@@H](C)CC)C(=O)N(C)CC(=O)N(C)[C@H]2CCCCCN(C2=O)[C@@H](Cc2ccc(C(F)(F)F)cc2)C(=O)N(C)CC(=O)N[C@@H](CCc2cc(F)c(C(F)(F)F)c(F)c2)C(=O)N2C[C@H](OCC)C[C@H]2C(=O)NC2(CCC2)C(=O)N(C)[C@@H](C2CCCC2)C(=O)N(C)[C@H](C(=O)N2CCOCC2)CC(=O)N1C [PP0681]	–	–	NRAS/KRAS (ratio of KD value with respect to NRAS to KD value with respect to KRAS) [2]: B (a compound having 3 or more and less than 10 is denoted as B); HRAS/KRAS (ratio of KD value with respect to HRAS to KD value with respect to KRAS) [3]: B (a compound having 3 or more and less than 10 is denoted as B)
–	0.14	CCCN1C(=O)CN(C)C(=O)CN(C)C(=O)[C@H]([C@@H](C)CC)NC(=O)[C@H](CC(C)C)N(C)C(=O)C[C@@H](C(=O)N2CCOCC2)N(C)C(=O)[C@H](C2CCCC2)N(C)C(=O)C2(CCCC2)NC(=O)[C@@H]2CCCN2C(=O)[C@H](CCc2cc(F)c(C(F)(F)F)c(F)c2)NC(=O)CN(C)C(=O)[C@@H]1Cc1ccc(C(F)(F)F)cc1 [PP0753] ([NMeL]I[Sar][Sar][NPrPhe(4-CF3)][Sar][hPhe(3,5-F2-4-CF3)]P[Ac5c][NMeGly(cPent)][NMeD]-Morpholide; lactam N-11)	–	–	NRAS/KRAS (ratio of KD value with respect to NRAS to KD value with respect to KRAS) [2]: B (a compound having 3 or more and less than 10 is denoted as B); HRAS/KRAS (ratio of KD value with respect to HRAS to KD value with respect to KRAS) [3]: C (A compound having a KD ratio of 0.1 or more and less than 3 is denoted as C)
0.11	–	CCO[C@@H]1C[C@H]2C(=O)NC3(CCC3)C(=O)N(C)[C@@H](C3CCCC3)C(=O)N(C)[C@H](C(=O)N(C)C)CC(=O)N(C)[C@@H](CC)C(=O)N[C@@H]([C@@H](C)CC)C(=O)N(C)CC(=O)N(C)[C@H]3CC=C(C)CN(C3=O)[C@@H](Cc3ccc(C(F)(F)F)cc3)C(=O)N(C)CC(=O)N[C@@H](CCc3cc(F)c(C(F)(F)F)c(F)c3)C(=O)N2C1 [PP0827]	C (A compound having a KD ratio of 0.1 or more and less than 3 is denoted as C)	C (A compound having a KD ratio of 0.1 or more and less than 3 is denoted as C)	–
–	0.21	CC[C@H](C)[C@@H]1NC(=O)[C@H](CC(C)C)N(C)C(=O)C[C@@H](C(=O)N2CCOCC2)N(C)C(=O)[C@H](C2CCCC2)N(C)C(=O)C2(CCCC2)NC(=O)[C@@H]2CCCN2C(=O)[C@H](CCc2ccc(C(F)(F)F)c(Cl)c2)NC(=O)CN(C)C(=O)[C@H](Cc2ccc(C(F)(F)F)cc2)N(CCOC)C(=O)[C@@H]2CCN2C(=O)[C@H](C)N(C)C1=O [PP0118] ([NMeL]I[NMeA][Aze][X32][Sar][hPhe(3-Cl-4-CF3)]P[Ac5c][NMeGly(cPent)][NMeD]-Morpholide; lactam N-11)	C (A compound having a KD ratio of 0.1 or more and less than 3 is denoted as C)	C (A compound having a KD ratio of 0.1 or more and less than 3 is denoted as C)	–
–	7.7	CC[C@H](C)[C@@H]1NC(=O)[C@H](CC(C)C)N(C)C(=O)C[C@@H](C(=O)N2CCOCC2)N(C)C(=O)[C@H](C2CCCC2)N(C)C(=O)C2(CCCC2)NC(=O)[C@@H]2CCCN2C(=O)[C@H](CCc2ccc(C(F)(F)F)c(Cl)c2)NC(=O)CN(CC)C(=O)[C@H](Cc2ccc(C)cc2)N(CC)C(=O)CN(CC)C(=O)CN(C)C1=O [PP0030] ([NMeL]I[Sar][NEtG][NEtPhe(4-Me)][NEtG][hPhe(3-Cl-4-CF3)]P[Ac5c][NMeGly(cPent)][NMeD]-Morpholide; lactam N-11)	C (A compound having a KD ratio of 0.1 or more and less than 3 is denoted as C)	C (A compound having a KD ratio of 0.1 or more and less than 3 is denoted as C)	–
